The target in assay [1] is Photoreceptor-specific nuclear receptor (Homo sapiens, UniProt Q9Y5X4). Type of assay: functional.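 Also: potency for compounds that break the NR2E3 corepressor complex and count as activators.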
The target of assay [2] is T1, Sphingosine 1-phosphate receptor 4 (Homo sapiens, UniProt O95977).
T1 sequence (O95977 whole entry): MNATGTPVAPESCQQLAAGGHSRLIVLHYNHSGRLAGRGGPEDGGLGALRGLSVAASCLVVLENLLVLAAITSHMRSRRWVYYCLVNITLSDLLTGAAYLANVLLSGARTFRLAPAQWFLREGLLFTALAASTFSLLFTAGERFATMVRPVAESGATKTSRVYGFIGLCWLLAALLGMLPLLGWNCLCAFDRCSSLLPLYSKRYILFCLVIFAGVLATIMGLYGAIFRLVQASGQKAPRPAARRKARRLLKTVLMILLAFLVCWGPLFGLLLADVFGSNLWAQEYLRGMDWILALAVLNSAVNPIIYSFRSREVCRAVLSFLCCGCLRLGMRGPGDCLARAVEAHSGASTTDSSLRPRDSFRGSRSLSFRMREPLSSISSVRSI
The assay is described as follows: Fluorescence dose response cell-based high throughput screening assay for antagonists of the Sphingosine 1-Phosphate Receptor 4 (S1P4). [Related pubchem assays: 1524 (Confirmation in triplicates.), 1510 (Primary screen.)]. Format: functional.

Assay [3] deals with T2, Zinc finger protein mex-5 (Caenorhabditis elegans, UniProt Q9XUB2).
T2 sequence (Q9XUB2 whole entry): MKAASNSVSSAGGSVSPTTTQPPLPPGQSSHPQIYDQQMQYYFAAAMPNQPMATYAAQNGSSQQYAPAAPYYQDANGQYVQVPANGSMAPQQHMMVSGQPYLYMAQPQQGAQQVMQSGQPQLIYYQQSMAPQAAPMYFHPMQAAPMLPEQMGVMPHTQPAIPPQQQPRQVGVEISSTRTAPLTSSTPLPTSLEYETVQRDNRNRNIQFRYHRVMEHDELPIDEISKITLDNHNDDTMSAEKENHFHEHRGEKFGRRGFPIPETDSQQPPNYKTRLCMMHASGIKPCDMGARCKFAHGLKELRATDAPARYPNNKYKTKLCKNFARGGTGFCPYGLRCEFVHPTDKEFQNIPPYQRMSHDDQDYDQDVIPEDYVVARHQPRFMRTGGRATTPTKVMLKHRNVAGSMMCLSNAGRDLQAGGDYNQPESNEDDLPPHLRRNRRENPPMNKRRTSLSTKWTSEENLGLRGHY
Briefly: potency of MEX-5 RNA-binding blockers – biochemical, C. elegans, fluorescence polarization, dose response (AID 1960). (In fluorescence polarisation assays a small probe gives low polarisation when free and higher when bound to something large.)

The target in assay [4] is T3, Heat shock factor protein 1 (Mus musculus, UniProt P38532).
T3 sequence (P38532 whole entry): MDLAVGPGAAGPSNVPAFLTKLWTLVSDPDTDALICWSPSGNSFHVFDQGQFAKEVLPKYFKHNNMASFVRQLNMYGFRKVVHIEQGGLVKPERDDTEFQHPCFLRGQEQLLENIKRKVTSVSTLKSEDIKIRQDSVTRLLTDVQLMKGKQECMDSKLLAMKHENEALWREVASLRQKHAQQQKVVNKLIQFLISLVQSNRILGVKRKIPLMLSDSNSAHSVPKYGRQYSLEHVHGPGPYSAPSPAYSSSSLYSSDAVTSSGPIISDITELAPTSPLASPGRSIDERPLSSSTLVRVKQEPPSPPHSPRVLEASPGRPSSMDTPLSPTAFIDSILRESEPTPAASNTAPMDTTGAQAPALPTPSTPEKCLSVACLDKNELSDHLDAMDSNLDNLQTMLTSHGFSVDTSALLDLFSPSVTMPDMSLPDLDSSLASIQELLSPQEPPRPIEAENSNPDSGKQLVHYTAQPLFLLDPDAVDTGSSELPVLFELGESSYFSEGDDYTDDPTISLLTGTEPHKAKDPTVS
Briefly: decrease of HSF1-responsive luciferase luminescence – cell-based, NIH3T3, dose retest, confirmation (AID 2382).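 Also: NIH3T3 fibroblasts with HSF1-driven luciferase reporter stressed by proteasome inhibitor MG132; luminescence from HSF1-driven luciferase expression after 8 hours of MG132 stress.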 Type of assay: functional.

For assay [5], the target named is T3, Heat shock factor protein 1. Briefly: enhancement of HSF1-driven luciferase signal – cell-based, NIH3T3, luminescence, dose retest, confirmation (AID 435004).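 Also: stress induced by proteasome inhibitor MG132 added 30 min after compound; luciferase reporter driven by HSF1 response element in NIH3T3 cells; actives raise luminescence as potentiators of the MG132 stress response.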 Format: functional.
Assay [6] addresses T4, Sentrin-specific protease 6 (Homo sapiens, UniProt Q9GZR1).
T4 sequence (Q9GZR1 whole entry): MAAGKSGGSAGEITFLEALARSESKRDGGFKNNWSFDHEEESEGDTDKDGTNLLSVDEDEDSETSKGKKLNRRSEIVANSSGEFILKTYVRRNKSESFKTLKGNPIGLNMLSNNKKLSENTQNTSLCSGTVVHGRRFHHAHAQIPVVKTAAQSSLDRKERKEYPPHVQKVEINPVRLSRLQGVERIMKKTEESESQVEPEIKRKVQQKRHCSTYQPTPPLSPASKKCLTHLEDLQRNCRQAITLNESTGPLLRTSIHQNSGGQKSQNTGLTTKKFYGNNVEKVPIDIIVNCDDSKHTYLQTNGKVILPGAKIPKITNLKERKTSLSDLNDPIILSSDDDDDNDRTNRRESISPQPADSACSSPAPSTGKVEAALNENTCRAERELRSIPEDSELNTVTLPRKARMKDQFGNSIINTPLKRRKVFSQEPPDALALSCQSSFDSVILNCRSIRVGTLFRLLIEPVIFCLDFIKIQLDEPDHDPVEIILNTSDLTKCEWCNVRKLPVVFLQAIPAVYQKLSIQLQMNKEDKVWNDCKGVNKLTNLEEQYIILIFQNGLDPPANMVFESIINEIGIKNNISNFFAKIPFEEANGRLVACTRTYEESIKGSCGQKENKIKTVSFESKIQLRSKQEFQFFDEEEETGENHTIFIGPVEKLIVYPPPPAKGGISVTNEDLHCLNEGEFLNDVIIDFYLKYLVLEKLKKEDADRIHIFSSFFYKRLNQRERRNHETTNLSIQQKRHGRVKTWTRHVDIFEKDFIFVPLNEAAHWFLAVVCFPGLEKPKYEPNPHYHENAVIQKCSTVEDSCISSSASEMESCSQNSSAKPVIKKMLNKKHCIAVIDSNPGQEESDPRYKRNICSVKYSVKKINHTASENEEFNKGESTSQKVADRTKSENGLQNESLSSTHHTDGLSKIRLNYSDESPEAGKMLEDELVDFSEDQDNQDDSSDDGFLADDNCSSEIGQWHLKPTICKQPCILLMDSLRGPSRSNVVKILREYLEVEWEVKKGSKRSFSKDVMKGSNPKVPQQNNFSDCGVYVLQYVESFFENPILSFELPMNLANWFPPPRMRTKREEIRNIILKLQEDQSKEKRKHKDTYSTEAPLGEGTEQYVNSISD
The assay is described as follows: SAR Analysis of small molecule inhibitors of Sentrin-specific protease 6 (SENP6) using a Luminescent assay. [Related pubchem assays (depositor defined):AID2582, AID2599]. Format: functional.

Assay [7] in a line: HEK-293T viability loss after treatment – luminescence, T-cell screen hits, cytotoxicity control for TCR NF-kB inhibitor project, dose response (AID 489026).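 Also: cells exposed to compound about 14 hours before the viability readout.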 Type of assay: functional, cell-based.

Active and inactive are the calls of the source.

Chain of Photoreceptor-specific nuclear receptor (Q9Y5X4 whole entry): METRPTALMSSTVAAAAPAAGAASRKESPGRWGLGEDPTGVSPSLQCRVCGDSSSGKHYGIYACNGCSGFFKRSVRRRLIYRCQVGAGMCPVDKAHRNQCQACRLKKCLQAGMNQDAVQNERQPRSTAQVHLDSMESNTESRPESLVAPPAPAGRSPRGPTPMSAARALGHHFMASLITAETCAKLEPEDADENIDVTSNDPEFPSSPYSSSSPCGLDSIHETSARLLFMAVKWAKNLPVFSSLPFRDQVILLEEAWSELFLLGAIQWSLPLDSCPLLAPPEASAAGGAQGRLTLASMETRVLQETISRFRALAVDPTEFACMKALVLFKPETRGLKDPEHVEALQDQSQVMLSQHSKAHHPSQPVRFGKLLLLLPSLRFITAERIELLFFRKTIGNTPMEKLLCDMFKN

As for `Cn1nc(-c2ccc(Cl)cc2)nc2c(=O)n(C)c(=O)nc1-2`, the IC50 is > 39.8 µM (not active) in assay [1] and 0.396 µM (active) in assay [2]. For the same molecule, the EC50 in assay [3] is 16.8 µM (active).

For `SC1=Nc2ccccc2C1`, the EC50 in assay [4] is 0.79 µM (active).

As to `CCCCNc1cc(NC(C)=O)cc2cc(OC)c(OC)cc12`, in assay [5], the EC50 is > 260 µM (inactive). Also, in assay [6], the IC50 is 82 µM (active).

As for `COc1ccc(C(NC(=O)C(C)C)c2ccc3cccnc3c2O)cc1` (configuration not stated), the IC50 in assay [7] is > 80 µM (inactive).

The IC50 is the concentration at which inhibition is half-maximal. As usually defined, the EC50 is the concentration needed to bring the measured effect to its halfway point.

Source of the values: ChEMBL document CHEMBL1201862, “PubChem BioAssay data set” (2004).
